Experiments:
Acetic Acid Induced Pain = test: Acetic acid induced pain (writhing); assay type: in vivo, ICR mice
[1] = Acute maximum tolerated dose study, dermal; design: species or system Beagle dogs; conditions: beagle, dog, in vivo, topical or ocular; dermal application
[2] = 14-day repeated dermal dose toxicity study; design: species or system Beagle dogs; conditions: beagle, dog, in vivo, topical or ocular; 14-day dermal
Osteoarthritis = test: Phase 2 study: effect of treatment on sign and symptoms of osteoarthritis at 12 weeks (re-analysis, all patients taken as active); assay type: in vivo, human; conditions: for difference from placebo, sign and symptoms of OA: placebo effect assumed −6.1; for Mean ± SEM WOMAC Osteoarthritis Index Composite Score Change from Baselines / Mean ± SEM WOMAC Osteoarthritis Index Composite Score Change from Baselines, adjusted by […] of the testing drug amount: scale 0 to 100
Description: (William G. Bensen, Justus J. Fiechtner, James 1. McMillen, et. al. Treatment of Osteoarthritis with Celecoxib. Mayo Clin Proc, November 1999. Vol 74, 1095-1105.)

[3] = Second Phase 2 study: plasma ibuprofen pharmacokinetics; assay type: in vivo, human; conditions: low dose levels (below 35 mg/day)
Description: All subjects enrolled at designated sites that have the capability to keep subjects overnight will be included in the PK subgroup until PK samples for 40 subjects per treatment group have been collected. […] At the Week 12/EOS visit, PK blood samples can be collected predose and at 2, 4, and 6 hours postdose. Subjects will only receive the morning dose at the Week 12/EOS visit.
Thus only ibuprofen was analyzed in this trial.

[4] = In vitro half-life with animal skin; assay type: in vitro ADME; conditions: read-out: in vitro T1/2 (converted)

CCN(CC)CCOC(=O)C(C)c1ccc(CC(C)C)cc1 (stereo not drawn) [2-(diethylamino)ethyl 2-(4-isobutylphenyl)propionate]
inhibitory effect compared with Vehicle (Acetic Acid Induced Pain; high dose): 2-(4-isobutylphenyl)propionate showed significant inhibitory effect | inhibitory effect (Acetic Acid Induced Pain; low dose): 2-(4-isobutylphenyl)propionate did not show any inhibitory effect in this | MTD [1]: ≥ 50 mg/kg | NOAEL at 14 days [2]: 50 mg/kg/day | difference from placebo, sign and symptoms of OA (Osteoarthritis; 8.75 mg BID, Week 12): −13.4 | adjusted best result relative to Celecoxib (100 mg, BID) (Osteoarthritis; 17.5 mg BID): 6 times | best result relative to Celecoxib (100 mg, BID) (Osteoarthritis; 17.5 mg BID): 3 times | difference from placebo, adjusted by […] of the testing drug (Osteoarthritis; 17.5 mg BID, Week 12): −43.5 | difference from placebo, sign and symptoms of OA (Osteoarthritis; 17.5 mg BID, Week 12): −22.8 | difference from placebo, sign and symptoms of OA (Osteoarthritis; 35 mg BID, Week 12): −16.9 | Mean ± SEM WOMAC Osteoarthritis Index Composite Score Change from Baselines (Osteoarthritis; 2 sprays/knee (8.75 mg, BID) transdermally, Follow-up (Week13)): −18.4 ± 3.20 | Mean ± SEM WOMAC Osteoarthritis Index Composite Score Change from Baselines (Osteoarthritis; 2 sprays/knee (8.75 mg, BID) transdermally, Week 2): −11.1 ± 2.50 | Mean ± SEM WOMAC Osteoarthritis Index Composite Score Change from Baselines (Osteoarthritis; 2 sprays/knee (8.75 mg, BID) transdermally, Week 4): −18.0 ± 2.50 | Mean ± SEM WOMAC Osteoarthritis Index Composite Score Change from Baselines (Osteoarthritis; 2 sprays/knee (8.75 mg, BID) transdermally, Week 8): −18.1 ± 2.92 | Mean ± SEM WOMAC Osteoarthritis Index Composite Score Change from Baselines (Osteoarthritis; 2 sprays/knee (8.75 mg, BID) transdermally, Week 12): −19.5 ± 3.18 | Mean ± SEM WOMAC Osteoarthritis Index Composite Score Change from Baselines, adjusted by […] of the testing drug amount (Osteoarthritis; 2 sprays/knee (8.75 mg, BID), Follow-up (Week 13)): −31.6 ± 5.49 | Mean ± SEM WOMAC Osteoarthritis Index Composite Score Change from Baselines, adjusted by […] of the testing drug amount (Osteoarthritis; 2 sprays/knee (8.75 mg, BID), Week 2): −19.0 ± 4.29 | Mean ± SEM WOMAC Osteoarthritis Index Composite Score Change from Baselines, adjusted by […] of the testing drug amount (Osteoarthritis; 2 sprays/knee (8.75 mg, BID), Week 4): −30.9 ± 4.29 | Mean ± SEM WOMAC Osteoarthritis Index Composite Score Change from Baselines, adjusted by […] of the testing drug amount (Osteoarthritis; 2 sprays/knee (8.75 mg, BID), Week 8): −31.0 ± 5.01 | Mean ± SEM WOMAC Osteoarthritis Index Composite Score Change from Baselines, adjusted by […] of the testing drug amount (Osteoarthritis; 2 sprays/knee (8.75 mg, BID), Week 12): −33.4 ± 5.45 | Mean ± SEM WOMAC Osteoarthritis Index Composite Score Change from Baselines (Osteoarthritis; 4 sprays/knee (17.5 mg, BID) transdermally, Follow-up (Week13)): −23.4 ± 3.52 | Mean ± SEM WOMAC Osteoarthritis Index Composite Score Change from Baselines (Osteoarthritis; 4 sprays/knee (17.5 mg, BID) transdermally, Week 2): −15.1 ± 2.89 | Mean ± SEM WOMAC Osteoarthritis Index Composite Score Change from Baselines (Osteoarthritis; 4 sprays/knee (17.5 mg, BID) transdermally, Week 4): −21.3 ± 3.32 | Mean ± SEM WOMAC Osteoarthritis Index Composite Score Change from Baselines (Osteoarthritis; 4 sprays/knee (17.5 mg, BID) transdermally, Week 8): −24.8 ± 3.26 | Mean ± SEM WOMAC Osteoarthritis Index Composite Score Change from Baselines (Osteoarthritis; 4 sprays/knee (17.5 mg, BID) transdermally, Week 12): −28.9 ± 3.38 | Mean ± SEM WOMAC Osteoarthritis Index Composite Score Change from Baselines, adjusted by […] of the testing drug amount (Osteoarthritis; 4 sprays/knee (17.5 mg, BID), Follow-up (Week 13)): −40.1 ± 6.04 | Mean ± SEM WOMAC Osteoarthritis Index Composite Score Change from Baselines, adjusted by […] of the testing drug amount (Osteoarthritis; 4 sprays/knee (17.5 mg, BID), Week 2): −25.9 ± 4.96 | Mean ± SEM WOMAC Osteoarthritis Index Composite Score Change from Baselines, adjusted by […] of the testing drug amount (Osteoarthritis; 4 sprays/knee (17.5 mg, BID), Week 4): −36.5 ± 5.69 | Mean ± SEM WOMAC Osteoarthritis Index Composite Score Change from Baselines, adjusted by […] of the testing drug amount (Osteoarthritis; 4 sprays/knee (17.5 mg, BID), Week 8): −42.5 ± 5.59 | Mean ± SEM WOMAC Osteoarthritis Index Composite Score Change from Baselines, adjusted by […] of the testing drug amount (Osteoarthritis; 4 sprays/knee (17.5 mg, BID), Week 12): −49.6 ± 5.80 | Mean ± SEM WOMAC Osteoarthritis Index Composite Score Change from Baselines (Osteoarthritis; 8 sprays/knee (35 mg, BID) transdermally, Follow-up (Week13)): −22.1 ± 3.23 | Mean ± SEM WOMAC Osteoarthritis Index Composite Score Change from Baselines (Osteoarthritis; 8 sprays/knee (35 mg, BID) transdermally, Week 2): −11.7 ± 2.88 | Mean ± SEM WOMAC Osteoarthritis Index Composite Score Change from Baselines (Osteoarthritis; 8 sprays/knee (35 mg, BID) transdermally, Week 4): −17.0 ± 2.96 | Mean ± SEM WOMAC Osteoarthritis Index Composite Score Change from Baselines (Osteoarthritis; 8 sprays/knee (35 mg, BID) transdermally, Week 8): −21.7 ± 3.28 | Mean ± SEM WOMAC Osteoarthritis Index Composite Score Change from Baselines (Osteoarthritis; 8 sprays/knee (35 mg, BID) transdermally, Week 12): −23.0 ± 3.27 | Mean ± SEM WOMAC Osteoarthritis Index Composite Score Change from Baselines, adjusted by […] of the testing drug amount (Osteoarthritis; 8 sprays/knee (35 mg, BID), Follow-up (Week 13)): −37.9 ± 5.54 | Mean ± SEM WOMAC Osteoarthritis Index Composite Score Change from Baselines, adjusted by […] of the testing drug amount (Osteoarthritis; 8 sprays/knee (35 mg, BID), Week 2): −20.1 ± 4.94 | Mean ± SEM WOMAC Osteoarthritis Index Composite Score Change from Baselines, adjusted by […] of the testing drug amount (Osteoarthritis; 8 sprays/knee (35 mg, BID), Week 4): −29.2 ± 5.08 | Mean ± SEM WOMAC Osteoarthritis Index Composite Score Change from Baselines, adjusted by […] of the testing drug amount (Osteoarthritis; 8 sprays/knee (35 mg, BID), Week 8): −37.2 ± 5.63 | Mean ± SEM WOMAC Osteoarthritis Index Composite Score Change from Baselines, adjusted by […] of the testing drug amount (Osteoarthritis; 8 sprays/knee (35 mg, BID), Week 12): −39.5 ± 5.61 | detectability of prodrug in plasma [3]: cannot be detected in most of subjects' plasma | half-life [4]: ~20 h

Source: patent US20240024273A1, “TOPICAL ADMINISTRATION OF 2-(DIETHYLAMINO)ETHYL 2-(4-ISOBUTYLPHENYL)PROPRIONATE FOR TREATMENT OF DISEASES” (TECHFIELDS PHARMA CO., LTD., priority 2020, published 2024)
